We go through 30 compounds from patent publication US12421210B2, “Fused bicyclic heterocycles as therapeutic agents” (NEW YORK UNIVERSITY, priority 2018, dated 2025).

Each structure is given as a SMILES string. Read-outs that look alike come from different tables or passages of the source.

The target in the experiment is human NAMPT enzyme (His-hNAMPT) (Homo sapiens (Human), UniProt P43490). The experiment can be described thus: NAMPT enzymatic inhibition assay (fluorescence, NADH product). Format: biochemical.
human NAMPT enzyme (His-hNAMPT), sequence (P43490 whole entry): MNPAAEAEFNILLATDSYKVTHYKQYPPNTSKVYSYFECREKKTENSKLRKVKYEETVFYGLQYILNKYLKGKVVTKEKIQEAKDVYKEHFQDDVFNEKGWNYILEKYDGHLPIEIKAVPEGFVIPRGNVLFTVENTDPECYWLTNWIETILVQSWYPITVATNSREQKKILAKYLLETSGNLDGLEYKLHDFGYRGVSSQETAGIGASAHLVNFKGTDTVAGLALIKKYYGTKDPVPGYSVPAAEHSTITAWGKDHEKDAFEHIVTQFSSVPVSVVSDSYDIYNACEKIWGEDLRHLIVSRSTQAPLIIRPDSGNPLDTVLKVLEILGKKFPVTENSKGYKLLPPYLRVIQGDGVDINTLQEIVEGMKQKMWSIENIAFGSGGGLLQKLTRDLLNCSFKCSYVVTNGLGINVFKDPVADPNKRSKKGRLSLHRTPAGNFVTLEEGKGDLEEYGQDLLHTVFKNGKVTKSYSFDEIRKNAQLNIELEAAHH
Where [1] appears, read: [BPS], read-out: NAMPT IC50 (μM) [BPS].

As a reminder, the IC50 is the concentration at which inhibition is half-maximal. As for `O=C(NCC[C@@H]1[C@H]2CN(C(=O)Nc3ccccc3)C[C@@H]12)c1cnc2nccn2c1` [Example 78, N-(2-((1R,5S,6s)-3-(phenylcarbamoyl)-3-azabicyclo[3.1.0]hexan-6-yl)ethyl)imidazo[1,2-a]pyrimidine-6-carboxamide], the IC50 under setting [1] was 0.5 to 0.99 µM. On the same count and under the same terms, in the case of `O=C(NCC[C@@H]1[C@H]2CN(C(=O)OC3CCOCC3)C[C@@H]12)c1cnc2nccn2c1` [Example 79, (1R,5S,6s)-tetrahydro-2H-pyran-4-yl 6-(2-(imidazo[1,2-a]pyrimidine-6-carboxamido)ethyl)-3-azabicyclo[3.1.0]hexane-3-carboxylate] it was 0.01 to 0.49 µM.

In the case of `O=C(NCC[C@@H]1[C@H]2CN(S(=O)(=O)C3CCOCC3)C[C@@H]12)c1cnc2nccn2c1` [Example 80, N-(2-((1R,5S,6s)-3-((tetrahydro-2H-pyran-4-yl)sulfonyl)-3-azabicyclo[3.1.0]hexan-6-yl)ethyl)imidazo[1,2-a]pyrimidine-6-carboxamide], the concentration for half-maximal inhibition (IC50) under setting [1] was 1 to 29 µM. For `CC(C)(C)NC(=O)N1C[C@@H]2[C@@H](CCNC(=O)c3cc(-c4cccnc4)on3)[C@@H]2C1` [Example 81, N-(2-((1R,5S,6s)-3-(tert-butylcarbamoyl)-3-azabicyclo[3.1.0]hexan-6-yl)ethyl)-5-(pyridin-3-yl)isoxazole-3-carboxamide], the IC50 under setting [1] is under 0.01 µM.

`CC(C)(C)NC(=O)N1C[C@@H]2[C@@H](CCNC(=O)c3cc4cnccc4[nH]3)[C@@H]2C1` [Example 82, N(2-((1R,5S,6s)-3-(tert-butylcarbamoyl)-3-azabicyclo[3.1.0]hexan-6-yl)ethyl)-1H-pyrrolo[3,2-c]pyridine-2-carboxamide]: the half-maximal inhibitory concentration (IC50) under setting [1] lay in the range of 0.01 to 0.49 µM. `O=C(NCC[C@@H]1[C@H]2CN(C(=O)OC3CCOCC3)C[C@@H]12)c1cc2cnccc2[nH]1` [Example 83, (1R,5S,6s)-tetrahydro-2H-pyran-4-yl 6-(2-(1H-pyrrolo[3,2-c]pyridine-2-carboxamido)ethyl)-3-azabicyclo[3.1.0]hexane-3-carboxylate]: the IC50 under setting [1] lay within 0.01 to 0.49 µM. As to `O=C(NCC[C@@H]1[C@H]2CN(S(=O)(=O)C3CCOCC3)C[C@@H]12)c1cc2cnccc2[nH]1` [Example 84, N-(2-((1R,5S,6s)-3-((tetrahydro-2H-pyran-4-yl)sulfonyl)-3-azabicyclo[3.1.0]hexan-6-yl)ethyl)-1H-pyrrolo[3,2-c]pyridine-2-carboxamide], under setting [1], the IC50 was in the range of 0.5 to 0.99 µM.

Consider `O=C(NCC[C@@H]1[C@H]2CN(C(=O)OC3CCOCC3)C[C@@H]12)c1cc2ccncc2s1` [Example 85, (1R,5S,6s)-tetrahydro-2H-pyran-4-yl 6-(2-(thieno[2,3-c]pyridine-2-carboxamido)ethyl)-3-azabicyclo[3.1.0]hexane-3-carboxylate], for which, under “[HDB], read-out: NAMPT IC50 (μM) [HDB]”, the 50% inhibitory concentration (IC50) was 0.01 to 0.49 µM. `Nc1ccc(/C=C/C(=O)NCC[C@@H]2[C@H]3CN(C(=O)c4ccc(F)cc4)C[C@@H]23)cn1` [Example 86, (E)-3-(6-aminopyridin-3-yl)-N-(2-((1R,5S,6s)-3-(4-fluorobenzoyl)-3-azabicyclo[3.1.0]hexan-6-yl)ethyl)acrylamide]: under setting [1], the IC50 is 0.01 to 0.49 µM. Consider `Cc1nc(C)c(C(=O)N2C[C@@H]3[C@@H](CCNC(=O)/C=C/c4ccc(N)nc4)[C@@H]3C2)o1` [Example 87, (E)-3-(6-aminopyridin-3-yl)-N-(2-((1R,5S,6s)-3-(2,4-dimethyloxazole-5-carbonyl)-3-azabicyclo[3.1.0]hexan-6-yl)ethyl)acrylamide], for which, under setting [1], the IC50 was 0.01 to 0.49 µM. On to `Cc1nn(C)c(C)c1C(=O)N1C[C@@H]2[C@@H](CCNC(=O)/C=C/c3ccc(N)nc3)[C@@H]2C1` [Example 88, (E)-3-(6-aminopyridin-3-yl)-N-(2-((1R,5S,6s)-3-(1,3,5-trimethyl-1H-pyrazole-4-carbonyl)-3-azabicyclo[3.1.0]hexan-6-yl)ethyl)acrylamide], for which the IC50 under setting [1] lay within 0.01 to 0.49 µM.

For the compound `Nc1ccc(/C=C/C(=O)NCC[C@@H]2[C@H]3CN(C(=O)c4cccc(F)c4)C[C@@H]23)cn1` [Example 89, (E)-3-(6-aminopyridin-3-yl)-N-(2-((1R,5S,6s)-3-(3-fluorobenzoyl)-3-azabicyclo[3.1.0]hexan-6-yl)ethyl)acrylamide], the half-maximal inhibitory concentration (IC50) under setting [1] lay within 0.01 to 0.49 µM. With `Nc1ccc(/C=C/C(=O)NCC[C@@H]2[C@H]3CN(C(=O)c4ccc(OC(F)F)cc4)C[C@@H]23)cn1` [Example 90, (E)-3-(6-aminopyridin-3-yl)-N-(2-((1R,5S,6s)-3-(4-(difluoromethoxy)benzoyl)-3-azabicyclo[3.1.0]hexan-6-yl)ethyl)acrylamide], the IC50 under setting [1] was in the range of 0.01 to 0.49 µM. The same measure, in the same setting: then `Nc1ccc(/C=C/C(=O)NCC[C@@H]2[C@H]3CN(C(=O)c4cccc(OC(F)F)c4)C[C@@H]23)cn1` [Example 91, (E)-3-(6-aminopyridin-3-yl)-N-(2-((1R,5S,6s)-3-(3-(difluoromethoxy)benzoyl)-3-azabicyclo[3.1.0]hexan-6-yl)ethyl)acrylamide], with 0.01 to 0.49 µM; and `Cc1ccncc1C(=O)N1C[C@@H]2[C@@H](CCNC(=O)/C=C/c3ccc(N)nc3)[C@@H]2C1` [Example 92, (E)-3-(6-aminopyridin-3-yl)-N-(2-((1R,5S,6s)-3-(4-methylnicotinoyl)-3-azabicyclo[3.1.0]hexan-6-yl)ethyl)acrylamide], with 0.01 to 0.49 µM; and `CN1CCC(c2ccc(C(=O)N3C[C@@H]4[C@@H](CCNC(=O)/C=C/c5ccc(N)nc5)[C@@H]4C3)cc2)CC1` [Example 93, (E)-3-(6-aminopyridin-3-yl)-N-(2-((1R,5S,6s)-3-(4-(1-methylpiperidin-4-yl)benzoyl)-3-azabicyclo[3.1.0]hexan-6-yl)ethyl)acrylamide], with 0.01 to 0.49 µM. With `Nc1ccc(/C=C/C(=O)NCC[C@@H]2[C@H]3CN(C(=O)CC4CCOCC4)C[C@@H]23)cn1` [Example 94, (E)-3-(6-aminopyridin-3-yl)-N-(2-((1R,5S,6s)-3-(2-(tetrahydro-2H-pyran-4-yl)acetyl)-3-azabicyclo[3.1.0]hexan-6-yl)ethyl)acrylamide], the IC50 under setting [1] lay in the range of 0.01 to 0.49 µM.

For `Nc1ccc(/C=C/C(=O)NCC[C@@H]2[C@H]3CN(C(=O)C4CCOCC4)C[C@@H]23)cn1` [Example 95, (E)-3-(6-aminopyridin-3-yl)-N-(2-((1R,5S,6s)-3-(tetrahydro-2H-pyran-4-carbonyl)-3-azabicyclo[3.1.0]hexan-6-yl)ethyl)acrylamide], under setting [1], the IC50 was 0.01 to 0.49 µM.

As to `CC(C)(C)CNC(=O)N1C[C@@H]2[C@@H](CCNC(=O)/C=C/c3ccc(N)nc3)[C@@H]2C1` [Example 96, (1R,5S,6s)-6-(2-((E)-3-(6-aminopyridin-3-yl)acrylamido)ethyl)-N-neopentyl-3-azabicyclo[3.1.0]hexane-3-carboxamide], the IC50 under setting [1] fell in the range of 0.01 to 0.49 µM. As for `O=C(NCC[C@@H]1[C@H]2CN(C(=O)c3ccc(F)cc3)C[C@@H]12)c1cc2ccncc2o1` [Example 97, N-(2-((1R,5S,6s)-3-(4-fluorobenzoyl)-3-azabicyclo[3.1.0]hexan-6-yl)ethyl)furo[2,3-c]pyridine-2-carboxamide], the 50% inhibitory concentration (IC50) under setting [1] was 0.01 to 0.49 µM. The same measure, in the same setting: then `Cc1nc(C)c(C(=O)N2C[C@@H]3[C@@H](CCNC(=O)c4cc5ccncc5o4)[C@@H]3C2)o1` [Example 98, N-(2-((1R,5S,6s)-3-(2,4-dimethyloxazole-5-carbonyl)-3-azabicyclo[3.1.0]hexan-6-yl)ethyl)furo[2,3-c]pyridine-2-carboxamide], with 0.01 to 0.49 µM; and `O=C(NCC[C@@H]1[C@H]2CN(C(=O)CC3CCOCC3)C[C@@H]12)c1cc2ccncc2o1` [Example 99, N-(2-((1R,5S,6s)-3-(2-(tetrahydro-2H-pyran-4-yl)acetyl)-3-azabicyclo[3.1.0]hexan-6-yl)ethyl)furo[2,3-c]pyridine-2-carboxamide], with 0.01 to 0.49 µM. Turning to `O=C(NCC[C@@H]1[C@H]2CN(C(=O)C3CCOCC3)C[C@@H]12)c1cc2ccncc2o1` [Example 100, N-(2-((1R,5S,6s)-3-(tetrahydro-2H-pyran-4-carbonyl)-3-azabicyclo[3.1.0]hexan-6-yl)ethyl)furo[2,3-c]pyridine-2-carboxamide], the 50% inhibitory concentration (IC50) under setting [1] was 0.5 to 0.99 µM. Same read-out and setting: in the case of `O=C(NCC[C@@H]1[C@H]2CN(C(=O)CC3CCOCC3)C[C@@H]12)c1ccc2nccn2c1` [Example 101, N-(2-((1R,5S,6s)-3-(2-(tetrahydro-2H-pyran-4-yl)acetyl)-3-azabicyclo[3.1.0]hexan-6-yl)ethyl)imidazo[1,2-a]pyridine-6-carboxamide] it was 0.01 to 0.49 µM. As for `O=C(NCC[C@@H]1[C@H]2CN(C(=O)c3ccc(F)cc3)C[C@@H]12)c1ccc2nccn2c1` [Example 102, N-(2-((1R,5S,6s)-3-(4-fluorobenzoyl)-3-azabicyclo[3.1.0]hexan-6-yl)ethyl)imidazo[1,2-a]pyridine-6-carboxamide], the IC50 under setting [1] fell in the range of 0.01 to 0.49 µM. Still for that read-out and setting: then `Cc1nc(C)c(C(=O)N2C[C@@H]3[C@@H](CCNC(=O)c4ccc5nccn5c4)[C@@H]3C2)o1` [Example 103, N-(2-((1R,5S,6s)-3-(2,4-dimethyloxazole-5-carbonyl)-3-azabicyclo[3.1.0]hexan-6-yl)ethyl)imidazo[1,2-a]pyridine-6-carboxamide], with 0.01 to 0.49 µM; and `O=C(/C=C/c1cccnc1)NCC[C@@H]1[C@H]2CN(C(=O)CC3CCOCC3)C[C@@H]12` [Example 104], with 0.01 to 0.49 µM. Consider `Cc1nc(C)c(C(=O)N2C[C@@H]3[C@@H](CCNC(=O)/C=C/c4cccnc4)[C@@H]3C2)o1` [Example 105, (E)-N-(2-((1R,5S,6s)-3-(2,4-dimethyloxazole-5-carbonyl)-3-azabicyclo[3.1.0]hexan-6-yl)ethyl)-3-(pyridin-3-yl)acrylamide], for which, under setting [1], the IC50 is 0.01 to 0.49 µM.

In the case of `O=C(NCC[C@@H]1[C@H]2CN(C(=O)CC3CCOCC3)C[C@@H]12)c1cnc2nccn2c1` [Example 106, N-(2-((1R,5S,6s)-3-(2-(tetrahydro-2H-pyran-4-yl)acetyl)-3-azabicyclo[3.1.0]hexan-6-yl)ethyl)imidazo[1,2-a]pyrimidine-6-carboxamide], the half-maximal inhibitory concentration (IC50) under setting [1] was in the range of 0.01 to 0.49 µM.

For `O=C(NCC[C@@H]1[C@H]2CN(C(=O)c3ccc(F)cc3)C[C@@H]12)c1cnc2nccn2c1` [Example 107, N-(2-((1R,5S,6s)-3-(4-fluorobenzoyl)-3-azabicyclo[3.1.0]hexan-6-yl)ethyl)imidazo[1,2-a]pyrimidine-6-carboxamide], the IC50 under setting [1] lay within 0.01 to 0.49 µM.
